Molecular target: KRasG12C (M1-K169, biotinylated on the N-terminus) (Homo sapiens (Human), UniProt P01116, G12C)
Assay: Covalent competition assay: scintillation proximity assay (SPA) quantifying covalent modification of KRASG12C
Format: binding
Conditions: competition with radiolabeled covalent probe (Compound B/Compound A), 2 hours incubation, 10 nM KRasG12C
Procedure, shortened: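 Test compounds compete with a radiolabeled covalent probe for modification of N-terminally biotinylated KRasG12C(M1-K169):GDP, final 10 nM protein, 25 nM radio-ligand, 475 nM unlabelled ligand, 2 h with agitation in 20 mM Tris-HCl pH 7.5, 150 mM NaCl, 0.1 mM MgCl2, 0.01% Tween-20.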

Structure (SMILES)	IC50 [nM]
C=CC(=O)N1CC2(CC(n3nc(N4[C@@H](C)CN(C(C)=O)C[C@@H]4C)c(-c4c(Cl)c(C)cc5[nH]ncc45)c3C)C2)C1 (single isomer, unassigned) [Example 56a]	> 50000
C=CC(=O)N1CC2(CC(n3nc(N4[C@@H](C)CN(C(C)=O)C[C@@H]4C)c(-c4c(Cl)c(C)cc5[nH]ncc45)c3C)C2)C1 (single isomer, unassigned) [Example 56b]	334
C=CC(=O)N1CC2(CC(n3nc(N4C5CCC4CN(C(C)=O)C5)c(-c4c(Cl)c(C)cc5[nH]ncc45)c3C)C2)C1 (single isomer, unassigned) [Example 57a, 1-(6-(3-(3-acetyl-3,8-diazabicyclo[3.2.1]octan-8-yl)-4-(5-chloro-6-methyl-1H-indazol-4-yl)-5-methyl-1H-pyrazol-1-yl)-2-azaspiro[3.3]heptan-2-yl)prop-2-en-1-one]	34700
C=CC(=O)N1CC2(CC(n3nc(N4C5CCC4CN(C(C)=O)C5)c(-c4c(Cl)c(C)cc5[nH]ncc45)c3C)C2)C1 (single isomer, unassigned) [Example 57b, 1-(6-(3-(3-acetyl-3,8-diazabicyclo[3.2.1]octan-8-yl)-4-(5-chloro-6-methyl-1H-indazol-4-yl)-5-methyl-1H-pyrazol-1-yl)-2-azaspiro[3.3]heptan-2-yl)prop-2-en-1-one]	216
C=CC(=O)N1CC2(CC(n3nc(N4CCC(N5CCOCC5)CC45CCC5)c(-c4c(Cl)c(C)cc5[nH]ncc45)c3C)C2)C1 (single isomer, unassigned) [Example 63a, 1-(6-(4-(5-chloro-6-methyl-1H-indazol-4-yl)-5-methyl-3-(8-morpholino-5-azaspiro[3.5]nonan-5-yl)-1H-pyrazol-1-yl)-2-azaspiro[3.3]heptan-2-yl)prop-2-en-1-one]	10
C=CC(=O)N1CC2(CC(n3nc(N4CCC(N5CCOCC5)CC45CCC5)c(-c4c(Cl)c(C)cc5[nH]ncc45)c3C)C2)C1 (single isomer, unassigned) [Example 63b, 1-(6-(4-(5-chloro-6-methyl-1H-indazol-4-yl)-5-methyl-3-(8-morpholino-5-azaspiro[3.5]nonan-5-yl)-1H-pyrazol-1-yl)-2-azaspiro[3.3]heptan-2-yl)prop-2-en-1-one]	3100
C=CC(=O)N1CC2(CC(n3nc(N4CC(=O)N(C)CC45CCC5)c(-c4c(Cl)c(C)cc5[nH]ncc45)c3C)C2)C1 (single isomer, unassigned) [Example 65a, 5-(1-(2-acryloyl-2-azaspiro[3.3]heptan-6-yl)-4-(5-chloro-6-methyl-1H-indazol-4-yl)-5-methyl-1H-pyrazol-3-yl)-8-methyl-5,8-diazaspiro[3.5]nonan-7-one]	> 5000
C=CC(=O)N1CC2(CC(n3nc(N4CC(=O)N(C)CC45CCC5)c(-c4c(Cl)c(C)cc5[nH]ncc45)c3C)C2)C1 (single isomer, unassigned) [Example 65b, 5-(1-(2-acryloyl-2-azaspiro[3.3]heptan-6-yl)-4-(5-chloro-6-methyl-1H-indazol-4-yl)-5-methyl-1H-pyrazol-3-yl)-8-methyl-5,8-diazaspiro[3.5]nonan-7-one]	212
C=CC(=O)N1CC2(CC(n3nc(N4CCCCC45CN(C(C)=O)C5)c(-c4c(Cl)c(C)cc5[nH]ncc45)c3C)C2)C1 (single isomer, unassigned) [Example 66a, 1-(6-(3-(2-acetyl-2,5-diazaspiro[3.5]nonan-5-yl)-4-(5-chloro-6-methyl-1H-indazol-4-yl)-5-methyl-1H-pyrazol-1-yl)-2-azaspiro[3.3]heptan-2-yl)prop-2-en-1-one]	> 50000
C=CC(=O)N1CC2(CC(n3nc(N4CCCCC45CN(C(C)=O)C5)c(-c4c(Cl)c(C)cc5[nH]ncc45)c3C)C2)C1 (single isomer, unassigned) [Example 66b, 1-(6-(3-(2-acetyl-2,5-diazaspiro[3.5]nonan-5-yl)-4-(5-chloro-6-methyl-1H-indazol-4-yl)-5-methyl-1H-pyrazol-1-yl)-2-azaspiro[3.3]heptan-2-yl)prop-2-en-1-one]	2200

The next lines start with the values.

IC50 [nM]	Structure (SMILES)
15	C=CC(=O)N1CC2(CC(n3nc(N4CCN(C5COC5)CC45CCC5)c(-c4c(Cl)c(C)cc5[nH]ncc45)c3C)C2)C1 (single isomer, unassigned) [Example 54b, 1-(6-(4-(5-Chloro-6-methyl-1H-indazol-4-yl)-5-methyl-3-(8-(oxetan-3-yl)-5,8-diazaspiro[3.5]nonan-5-yl)-1H-pyrazol-1-yl)-2-azaspiro[3.3]heptan-2-yl)prop-2-en-1-one]
24700	C=CC(=O)N1CC2(CC(n3nc(N4CCN(C)CC45CCC5)c(-c4c(Cl)c(C)cc5[nH]ncc45)c3C)C2)C1 (single isomer, unassigned) [Example 55a, 1-(6-(4-(5-chloro-6-methyl-1H-indazol-4-yl)-5-methyl-3-(8-methyl-5,8-diazaspiro[3.5]nonan-5-yl)-1H-pyrazol-1-yl)-2-azaspiro[3.3]heptan-2-yl)prop-2-en-1-one]
34	C=CC(=O)N1CC2(CC(n3nc(N4CCN(C)CC45CCC5)c(-c4c(Cl)c(C)cc5[nH]ncc45)c3C)C2)C1 (single isomer, unassigned) [Example 55b, 1-(6-(4-(5-chloro-6-methyl-1H-indazol-4-yl)-5-methyl-3-(8-methyl-5,8-diazaspiro[3.5]nonan-5-yl)-1H-pyrazol-1-yl)-2-azaspiro[3.3]heptan-2-yl)prop-2-en-1-one]
881	C=CC(=O)N1CC2(CC(n3nc(N4CCC(N(CC)C5COC5)CC4(C)C)c(-c4c(Cl)c(Cl)cc5[nH]ncc45)c3C)C2)C1 (single isomer, unassigned) [Example 61a, 1-(6-(4-(5,6-dichloro-1H-indazol-4-yl)-3-(4-(ethyl(oxetan-3-yl)amino)-2,2-dimethylpiperidin-1-yl)-5-methyl-1H-pyrazol-1-yl)-2-azaspiro[3.3]heptan-2-yl)prop-2-en-1-one]
6	C=CC(=O)N1CC2(CC(n3nc(N4CCC(N(CC)C5COC5)CC4(C)C)c(-c4c(Cl)c(Cl)cc5[nH]ncc45)c3C)C2)C1 (single isomer, unassigned) [Example 61b, 1-(6-(4-(5,6-dichloro-1H-indazol-4-yl)-3-(4-(ethyl(oxetan-3-yl)amino)-2,2-dimethylpiperidin-1-yl)-5-methyl-1H-pyrazol-1-yl)-2-azaspiro[3.3]heptan-2-yl)prop-2-en-1-one]
> 50000	C=CC(=O)N1CC2(CC(n3nc(N4CCN(C5COC5)CC4(C)C)c(-c4c(Cl)c(C)cc5[nH]ncc45)c3C)C2)C1 (single isomer, unassigned) [Example 67a, 1-(6-(4-(5-chloro-6-methyl-1H-indazol-4-yl)-3-(2,2-dimethyl-4-(oxetan-3-yl)piperazin-1-yl)-5-methyl-1H-pyrazol-1-yl)-2-azaspiro[3.3]heptan-2-yl)prop-2-en-1-one]
38	C=CC(=O)N1CC2(CC(n3nc(N4CCN(C5COC5)CC4(C)C)c(-c4c(Cl)c(C)cc5[nH]ncc45)c3C)C2)C1 (single isomer, unassigned) [Example 67b, 1-(6-(4-(5-chloro-6-methyl-1H-indazol-4-yl)-3-(2,2-dimethyl-4-(oxetan-3-yl)piperazin-1-yl)-5-methyl-1H-pyrazol-1-yl)-2-azaspiro[3.3]heptan-2-yl)prop-2-en-1-one]
